Assays:
ZAP70 = target: T1, ZAP70 (Homo sapiens, UniProt P43403); test: KINOMEscan; format: binding; settings: 1 μM of compound 4; read-out: POC
T1 construct: purchased Eurofins DiscoverX

MEK1 = MEK1 (Homo sapiens, UniProt Q02750); test: KINOMEscan; format: binding; settings: 1 μM of compound 4; read-out: POC
CLK1 = CLK1 (Homo sapiens, UniProt P49759); test: KINOMEscan; format: binding; settings: 1 μM of compound 4; read-out: POC
PIK3CA(H1047L) = PIK3CA(H1047L) (Homo sapiens, UniProt P42336, H1047L); test: KINOMEscan; format: binding; settings: 1 μM of compound 4; read-out: POC
MKNK2 = MKNK2 (Homo sapiens, UniProt Q9HBH9); test: KINOMEscan; format: binding; settings: 1 μM of compound 4; read-out: POC
ERBB4 = target: T2, ERBB4 (Homo sapiens, UniProt Q15303); test: KINOMEscan; format: binding; settings: 1 μM of compound 4; read-out: POC
T2 construct: purchased Eurofins DiscoverX Corporation

[1] = target: T3, ABL1(T315I)-nonphosphorylated (Homo sapiens, UniProt P00519, T315I); test: KINOMEscan; format: binding; settings: 1 μM of compound 4; read-out: POC
T3 construct: purchased Eurofins DiscoverX Corporation

FES = target: T4, FES (Homo sapiens, UniProt P07332); test: KINOMEscan; format: binding; settings: 1 μM of compound 4; read-out: POC
T4 construct: purchased Eurofins DiscoverX Corporation

[2] = target: T5, ABL1(F317I)-nonphosphorylated (Homo sapiens, UniProt P00519, F317I); test: KINOMEscan; format: binding; settings: 1 μM of compound 4; read-out: POC
T5 construct: purchased Eurofins DiscoverX Corporation

GRK7 = target: T6, GRK7 (Homo sapiens, UniProt Q8WTQ7); test: KINOMEscan; format: binding; settings: 1 μM of compound 4; read-out: POC
T6 construct: purchased Eurofins DiscoverX Corporation

CDKL2 = CDKL2 (Homo sapiens, UniProt Q92772); test: KINOMEscan; format: binding; settings: 1 μM of compound 4; read-out: POC
YANK3 = target: T7, YANK3 (Homo sapiens, UniProt Q86UX6); test: KINOMEscan; format: binding; settings: 1 μM of compound 4; read-out: POC
T7 construct: purchased Eurofins DiscoverX

[3] = target: T8, EGFR L858R/T790M/C797S kinase domain (Homo sapiens, UniProt P00533, C797S/L858R/T790M); test: HTRF-based activity assay; format: biochemical; settings: 100 μM ATP, enzyme 0.02 nM, read-out: Biochemical EGFR IC50, LRTMCS
T8 construct: The EGFR kinase domain (residues 696-1022) was cloned into pTriEx; 6xHis (N, cleaved yes); GST (N, cleaved yes); made in house; host or cells: SF9 insect cells (baculovirus)
Protocol: Protein expression and purification. The EGFR kinase domain (residues 696-1022) was cloned into pTriEx with an N-terminal 6×His-glutathione S-transferase (GST) fusion tag followed by a TEV protease cleavage site. EGFR WT, L858R, L858R/T790M, L858R/T790M/C797S was expressed after baculoviral infection in SF9 cells and EGFR(T790M/V948R) was expressed in SF21 cells. Briefly, cells were pelleted and resuspended in lysis buffer composed of 50 mM Tris pH 8.0, 500 mM NaCl, 1 mM tris(2-carboxyethyl)phosphine (TCEP), and 5% glycerol. Cells were lysed via sonication prior to ultracentrifugation at >200,000 g for 1 h. Imidazole pH 8.0 was added to the supernatant for a final concentration of 40 mM and flowed through a column containing Ni-NTA agarose beads. The resin was washed with lysis buffer supplemented with 40 mM imidazole and eluted with lysis buffer containing 200 mM imidazole. Eluted EGFR kinase domain was dialyzed overnight in the presence of 5% (w/w) TEV protease against dialysis buffer containing 50 mM Tris pH 8.0, 500 mM NaCl, 1 mM TCEP, and 5% glycerol. The cleaved protein was passed through Ni-NTA resin to remove the 6×His-GST fusion protein and TEV prior to size exclusion chromatography on a prep-grade Superdex S200 column in 50 mM Tris pH 8.0, 500 mM NaCl, 1 mM TCEP, and 5% glycerol.
HTRF Assays. Biochemical assays for EGFR domains were carried out using a homogeneous time-resolved fluorescence (HTRF) KinEASE-TK (Cisbio) assay, as described previously. Assays were optimized for ATP concentration of 100 μM with enzyme concentrations WT EGFR 10 nM, L858R 0.1 nM, L858R/T790M at 0.02 nM and L858R/T790M/C797S at 0.02 nM. Inhibitor compounds in DMSO were dispensed directly in 384-well plates with the D300 digital dispenser (Hewlett Packard) followed immediately by the addition of aqueous buffered solutions using the Multidrop Combi Reagent Dispenser (Thermo Fischer). […] The curves were fitted using a non-linear regression model with a sigmoidal dose response.

EPHA3 = target: T9, EPHA3 (Homo sapiens, UniProt P29320); test: KINOMEscan; format: binding; settings: 1 μM of compound 4; read-out: POC
T9 construct: purchased Eurofins DiscoverX (KINOMEscan service)

[4] = target: T10, ABL1(F317L)-phosphorylated (Homo sapiens, UniProt P00519, F317L); test: KINOMEscan; format: binding; settings: 1 μM of compound 4; read-out: POC
T10 construct: purchased Eurofins DiscoverX Corporation

PRKG1 = PRKG1 (Homo sapiens, UniProt Q13976); test: KINOMEscan; format: binding; settings: 1 μM of compound 4; read-out: POC
PRKD2 = PRKD2 (Homo sapiens, UniProt Q9BZL6); test: KINOMEscan; format: binding; settings: 1 μM of compound 4; read-out: POC
[5] = target: T11, ABL1(Q252H)-nonphosphorylated (Homo sapiens, UniProt P00519, Q252H); test: KINOMEscan; format: binding; settings: 1 μM of compound 4; read-out: POC
T11 construct: purchased Eurofins DiscoverX Corporation

LKB1 = LKB1 (Homo sapiens, UniProt Q15831); test: KINOMEscan; format: binding; settings: 1 μM of compound 4; read-out: POC
Chain of LKB1 (Q15831 whole entry): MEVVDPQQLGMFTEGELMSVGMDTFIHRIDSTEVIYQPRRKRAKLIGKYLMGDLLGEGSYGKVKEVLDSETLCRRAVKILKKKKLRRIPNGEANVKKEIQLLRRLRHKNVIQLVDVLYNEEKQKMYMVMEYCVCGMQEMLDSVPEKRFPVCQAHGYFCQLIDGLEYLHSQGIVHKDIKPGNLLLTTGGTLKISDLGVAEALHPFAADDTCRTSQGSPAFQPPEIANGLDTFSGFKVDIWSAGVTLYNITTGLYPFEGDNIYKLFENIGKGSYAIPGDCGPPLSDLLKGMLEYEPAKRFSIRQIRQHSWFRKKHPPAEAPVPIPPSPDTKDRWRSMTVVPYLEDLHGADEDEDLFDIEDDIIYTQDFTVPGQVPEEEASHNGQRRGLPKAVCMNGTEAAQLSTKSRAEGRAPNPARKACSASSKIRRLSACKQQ

T8 sequence (P00533 696-1022 T790M/C797S/L858R): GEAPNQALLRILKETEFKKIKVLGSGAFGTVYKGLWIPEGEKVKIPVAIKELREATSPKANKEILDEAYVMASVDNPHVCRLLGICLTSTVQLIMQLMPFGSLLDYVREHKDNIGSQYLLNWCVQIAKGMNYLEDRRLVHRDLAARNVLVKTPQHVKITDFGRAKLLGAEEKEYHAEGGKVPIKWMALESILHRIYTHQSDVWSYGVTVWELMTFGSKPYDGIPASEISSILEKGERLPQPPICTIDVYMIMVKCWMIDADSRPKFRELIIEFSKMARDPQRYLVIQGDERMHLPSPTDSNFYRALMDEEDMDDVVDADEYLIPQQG
Chain of PRKG1 (Q13976 whole entry): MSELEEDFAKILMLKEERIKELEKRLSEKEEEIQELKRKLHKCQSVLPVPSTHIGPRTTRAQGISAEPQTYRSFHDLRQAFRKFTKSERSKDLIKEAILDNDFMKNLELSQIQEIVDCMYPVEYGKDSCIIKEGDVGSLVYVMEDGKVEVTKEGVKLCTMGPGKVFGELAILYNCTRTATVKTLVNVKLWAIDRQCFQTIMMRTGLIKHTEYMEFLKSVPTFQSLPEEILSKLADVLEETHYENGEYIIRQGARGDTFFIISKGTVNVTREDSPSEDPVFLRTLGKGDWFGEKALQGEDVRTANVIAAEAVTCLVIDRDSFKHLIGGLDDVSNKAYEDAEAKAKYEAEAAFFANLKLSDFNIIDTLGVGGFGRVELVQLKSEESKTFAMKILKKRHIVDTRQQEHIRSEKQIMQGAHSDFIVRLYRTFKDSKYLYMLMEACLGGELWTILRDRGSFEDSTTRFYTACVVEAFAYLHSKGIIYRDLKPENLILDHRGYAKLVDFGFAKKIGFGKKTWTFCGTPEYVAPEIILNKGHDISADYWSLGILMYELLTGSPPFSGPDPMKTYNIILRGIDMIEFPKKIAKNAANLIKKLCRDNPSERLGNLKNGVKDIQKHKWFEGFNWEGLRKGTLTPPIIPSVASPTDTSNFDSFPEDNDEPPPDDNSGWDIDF
Chain of PIK3CA(H1047L) (P42336 whole entry H1047L): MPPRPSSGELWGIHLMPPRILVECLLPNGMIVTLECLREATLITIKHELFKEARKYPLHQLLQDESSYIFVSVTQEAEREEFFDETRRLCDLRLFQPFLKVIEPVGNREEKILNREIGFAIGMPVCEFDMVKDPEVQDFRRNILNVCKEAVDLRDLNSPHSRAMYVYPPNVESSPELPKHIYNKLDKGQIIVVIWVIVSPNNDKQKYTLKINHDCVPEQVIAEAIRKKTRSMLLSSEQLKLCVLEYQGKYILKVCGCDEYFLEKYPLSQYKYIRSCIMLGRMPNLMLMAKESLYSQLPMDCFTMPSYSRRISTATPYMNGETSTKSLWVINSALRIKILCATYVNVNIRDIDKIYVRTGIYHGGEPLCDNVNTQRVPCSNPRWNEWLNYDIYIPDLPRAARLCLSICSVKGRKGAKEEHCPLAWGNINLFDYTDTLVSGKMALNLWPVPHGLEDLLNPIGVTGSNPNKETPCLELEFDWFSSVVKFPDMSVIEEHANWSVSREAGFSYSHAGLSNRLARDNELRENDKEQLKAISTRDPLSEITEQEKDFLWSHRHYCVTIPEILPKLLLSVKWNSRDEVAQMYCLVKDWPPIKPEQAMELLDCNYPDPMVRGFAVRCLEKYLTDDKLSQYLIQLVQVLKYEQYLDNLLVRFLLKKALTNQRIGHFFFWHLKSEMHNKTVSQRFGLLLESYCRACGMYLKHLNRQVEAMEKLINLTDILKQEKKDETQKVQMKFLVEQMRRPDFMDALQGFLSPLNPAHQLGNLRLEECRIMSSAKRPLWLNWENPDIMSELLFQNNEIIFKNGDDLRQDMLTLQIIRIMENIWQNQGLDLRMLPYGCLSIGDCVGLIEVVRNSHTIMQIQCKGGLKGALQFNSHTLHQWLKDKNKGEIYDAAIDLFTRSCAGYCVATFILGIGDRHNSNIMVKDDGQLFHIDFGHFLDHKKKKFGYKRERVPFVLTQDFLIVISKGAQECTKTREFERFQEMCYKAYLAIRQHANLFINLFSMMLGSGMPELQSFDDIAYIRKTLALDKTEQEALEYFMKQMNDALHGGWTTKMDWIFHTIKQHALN
Chain of CLK1 (P49759 whole entry): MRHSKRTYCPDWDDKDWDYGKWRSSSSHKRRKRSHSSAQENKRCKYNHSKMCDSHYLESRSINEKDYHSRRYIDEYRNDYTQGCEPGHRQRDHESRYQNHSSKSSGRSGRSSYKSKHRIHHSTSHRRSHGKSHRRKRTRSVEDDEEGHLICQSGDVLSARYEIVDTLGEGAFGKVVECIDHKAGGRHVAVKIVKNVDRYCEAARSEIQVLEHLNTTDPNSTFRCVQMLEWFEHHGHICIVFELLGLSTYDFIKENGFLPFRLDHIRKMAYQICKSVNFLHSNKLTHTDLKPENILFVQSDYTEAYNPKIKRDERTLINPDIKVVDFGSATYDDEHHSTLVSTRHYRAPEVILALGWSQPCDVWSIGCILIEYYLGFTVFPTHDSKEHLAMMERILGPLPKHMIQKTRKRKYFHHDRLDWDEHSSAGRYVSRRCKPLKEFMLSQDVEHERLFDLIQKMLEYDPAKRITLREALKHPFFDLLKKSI
T6 sequence (Q8WTQ7 whole entry): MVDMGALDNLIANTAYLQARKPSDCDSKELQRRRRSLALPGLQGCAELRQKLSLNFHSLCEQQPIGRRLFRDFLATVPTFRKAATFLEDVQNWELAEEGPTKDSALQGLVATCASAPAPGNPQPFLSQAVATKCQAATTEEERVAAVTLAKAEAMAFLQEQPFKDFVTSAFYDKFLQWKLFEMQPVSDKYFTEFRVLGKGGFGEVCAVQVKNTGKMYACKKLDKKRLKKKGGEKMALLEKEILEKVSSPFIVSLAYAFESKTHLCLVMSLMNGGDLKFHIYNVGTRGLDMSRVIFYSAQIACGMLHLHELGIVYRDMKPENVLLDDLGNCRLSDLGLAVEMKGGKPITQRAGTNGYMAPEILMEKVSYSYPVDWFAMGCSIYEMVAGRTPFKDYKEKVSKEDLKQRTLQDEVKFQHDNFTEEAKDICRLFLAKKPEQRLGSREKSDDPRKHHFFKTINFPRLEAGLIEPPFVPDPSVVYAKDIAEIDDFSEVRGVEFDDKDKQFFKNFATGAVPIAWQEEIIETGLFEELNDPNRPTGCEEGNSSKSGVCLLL
Chain of CDKL2 (Q92772 whole entry): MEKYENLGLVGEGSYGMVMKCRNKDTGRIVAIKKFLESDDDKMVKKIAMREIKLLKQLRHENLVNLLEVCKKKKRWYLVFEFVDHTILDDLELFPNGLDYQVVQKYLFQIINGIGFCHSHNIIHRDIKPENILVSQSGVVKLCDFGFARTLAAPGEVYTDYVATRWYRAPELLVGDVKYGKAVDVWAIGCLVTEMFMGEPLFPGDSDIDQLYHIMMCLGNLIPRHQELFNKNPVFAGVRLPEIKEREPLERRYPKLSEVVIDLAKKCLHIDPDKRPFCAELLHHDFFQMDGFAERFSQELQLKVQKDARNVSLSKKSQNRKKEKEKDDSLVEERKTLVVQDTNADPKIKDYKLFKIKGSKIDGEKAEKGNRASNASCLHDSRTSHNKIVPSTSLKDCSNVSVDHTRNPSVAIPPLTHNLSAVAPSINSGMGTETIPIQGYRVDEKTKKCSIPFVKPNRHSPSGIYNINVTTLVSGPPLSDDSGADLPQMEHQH
Chain of MEK1 (Q02750 whole entry): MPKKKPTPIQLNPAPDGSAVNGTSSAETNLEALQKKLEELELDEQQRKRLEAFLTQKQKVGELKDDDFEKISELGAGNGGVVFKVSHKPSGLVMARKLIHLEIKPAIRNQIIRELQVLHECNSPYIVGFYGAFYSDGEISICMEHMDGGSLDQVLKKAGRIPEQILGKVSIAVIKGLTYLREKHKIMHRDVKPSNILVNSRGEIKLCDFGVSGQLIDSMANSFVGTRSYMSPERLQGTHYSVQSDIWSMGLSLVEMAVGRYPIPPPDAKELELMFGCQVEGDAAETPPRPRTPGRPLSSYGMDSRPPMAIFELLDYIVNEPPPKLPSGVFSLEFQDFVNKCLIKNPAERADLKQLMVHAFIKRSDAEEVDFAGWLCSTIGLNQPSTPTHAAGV
Chain of MKNK2 (Q9HBH9 whole entry): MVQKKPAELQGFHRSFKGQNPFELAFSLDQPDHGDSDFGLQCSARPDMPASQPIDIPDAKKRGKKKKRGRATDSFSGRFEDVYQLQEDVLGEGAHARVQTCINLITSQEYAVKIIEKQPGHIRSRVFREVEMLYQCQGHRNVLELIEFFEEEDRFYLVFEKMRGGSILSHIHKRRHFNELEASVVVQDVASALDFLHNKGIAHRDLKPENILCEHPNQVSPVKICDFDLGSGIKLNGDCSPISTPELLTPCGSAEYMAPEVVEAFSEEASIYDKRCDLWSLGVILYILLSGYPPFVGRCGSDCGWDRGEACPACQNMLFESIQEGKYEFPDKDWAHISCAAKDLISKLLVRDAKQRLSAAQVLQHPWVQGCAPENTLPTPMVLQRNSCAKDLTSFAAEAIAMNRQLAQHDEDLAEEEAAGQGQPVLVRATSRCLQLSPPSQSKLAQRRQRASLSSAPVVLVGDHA

C=CC(=O)Nc1ccc(OC)c(Nc2cc(-c3[nH]c(CC)nc3-c3cccc(NC(=O)c4cccc5c4NC(=O)c4ccccc4N5)c3)ccn2)c1 [Compound 4, N-(3-(5-(2-((5-Acrylamido-2-methoxyphenyl)amino)pyridin-4-yl)-2-ethyl-1H-imidazol-4-yl)phenyl)-11-oxo-10,11-dihydro-5H-dibenzo[b,e][1,4]diazepine-9-carboxamide]
remaining binding at 1 µM (ZAP70): 97%
remaining binding at 1 µM (MEK1): 100%
remaining binding at 1 µM (CLK1): 100%
remaining binding at 1 µM (PIK3CA(H1047L)): 100%
remaining binding at 1 µM (MKNK2): 100%
remaining binding at 1 µM (ERBB4): 4.9%
remaining binding at 1 µM [1]: 98%
remaining binding at 1 µM (FES): 28%
remaining binding at 1 µM [2]: 40%
remaining binding at 1 µM (GRK7): 99%
remaining binding at 1 µM (CDKL2): 100%
remaining binding at 1 µM (YANK3): 96%
IC50 [3]: 1.8 ± 0.3 nM
remaining binding at 1 µM (EPHA3): 81%
remaining binding at 1 µM [4]: 85%
remaining binding at 1 µM (PRKG1): 100%
remaining binding at 1 µM (PRKD2): 62%
remaining binding at 1 µM [5]: 100%
remaining binding at 1 µM (LKB1): 100%
